According to patent US8815881B2 (Hoffmann-La Roche Inc., priority 2010, dated 2014):
Counter-ions that a name gives are not always drawn.

These molecules were tested against endogenous cellular BACE2 in the Ins1e rat cell line (Rattus norvegicus (Rat), UniProt Q6IE75) (assay: Assay for BACE inhibition by measuring cellular TMEM27 cleavage (ELISA of shed hTMEM27 from INS-TMEM27 cells)). Conditions: assay a): cellular TMEM27 cleavage, INS-TMEM27 cells (superscript a).
endogenous cellular BACE2 in the Ins1e rat cell line, sequence (Q6IE75 63-514): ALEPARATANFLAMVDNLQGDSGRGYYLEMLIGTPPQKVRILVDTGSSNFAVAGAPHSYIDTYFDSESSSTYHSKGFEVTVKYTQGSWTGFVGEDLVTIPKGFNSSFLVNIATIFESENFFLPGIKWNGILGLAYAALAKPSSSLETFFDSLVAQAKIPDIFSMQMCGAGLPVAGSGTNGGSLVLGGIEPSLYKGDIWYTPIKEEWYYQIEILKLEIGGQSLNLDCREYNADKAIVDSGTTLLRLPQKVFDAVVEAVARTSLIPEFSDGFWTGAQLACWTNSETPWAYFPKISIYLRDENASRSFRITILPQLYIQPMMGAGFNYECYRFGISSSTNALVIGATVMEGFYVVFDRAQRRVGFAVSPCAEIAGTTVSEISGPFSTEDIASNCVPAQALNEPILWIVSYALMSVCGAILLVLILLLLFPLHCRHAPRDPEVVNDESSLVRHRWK
Assay type: cell-based
Excerpt: a) Assay for BACE Inhibition by Measuring Cellular TMEM27 Cleavage:
The assay uses the principle of inhibition of human TMEM27 cleavage by endogenous cellular BACE2 in the Ins1e rat cell line and shedding from the cell surface into the culture medium, followed by detection in an ELISA assay. Inhibition of BACE2 prevents the cleavage and shedding in a dose-dependent manner.
The stable cell line “INS-TMEM27” represents an INS1e-derived cell line with inducible expression (using the TetOn system) of full-length hTMEM27 in a doxycycline-dependent manner. The cells are cultured throughout the experiment in RPMI1640+Glutamax (Invitrogen) Penicillin/Streptomycin, 10% Fetal bovine serum, […], […], 100 micrograms/ml G418 and 100 microgram/ml hygromycin and are grown inadherent culture at 37° C. in a standard CO2 cell culture incubator.
INS-TMEM27 cells are seeded in 96-well plates. After 2 days in culture, BACE2 inhibitor is added in a range of concentrations as required by the assay and after a further two hours, doxycycline is added to a final concentration of 500 ng/ml. The cells are incubated for a further 46 hours and the supernatant harvested for detection of shed TMEM27.
An ELISA assay (using a pair of mouse anti-human-TMEM27 antibodies, raised against the extracellular domain of TMEM27) is used for detection of TMEM27 in the culture medium. An EC50 for BACE2 inhibition is calculated using the ELISA readout for each inhibitor concentration with standard curve-fitting software such as XLFit for the Excel spreadsheet program.
Molecule `CN1C(=O)C(C)(C)[C@@](C)(c2cc(NC3CC4CC3CC4O)ccc2F)N=C1N` (stereo partly drawn) [Example 101, (6S)-2-Amino-6-(2-fluoro-5-(5-hydroxybicyclo[2.2.1]heptan-2-ylamino)phenyl)-3,5,5,6-tetramethyl-5,6-dihydropyrimidin-4(3H)-one] has an IC50 of 1 nM.
`C[C@@]1(c2cccc(NC(=O)C3(C(F)(F)F)CC3)c2)CC(=O)N(CC2CC2)C(N)=N1` [Example 13, 1-Trifluoromethyl-cyclopropanecarboxylic acid [3-((S)-2-amino-1-c-cyclopropylmethyl-4-methyl-6-oxo-1,4,5,6-tetrahydro-pyrimidin-4-yl)-phenyl]-amide] was tested, and the IC50 was 190 nM.
Molecule `CN1C(=O)C(C)(C)[C@@](C)(c2cc(NC3CCc4cc(Cl)ccc43)ccc2F)N=C1N` (stereo partly drawn) [Example 29, (S)-2-Amino-6-[5-(5-chloro-indan-1-ylamino)-2-fluoro-phenyl]-3,5,5,6-tetramethyl-5,6-dihydro-3H-pyrimidin-4-one] has an IC50 of 32 nM.
Molecule `CN1C(=O)C(C)(C)[C@@](C)(c2cc(NC3CCC(C(F)(F)F)CC3)ccc2F)N=C1N` (stereo partly drawn) [Example 41, (S)-2-amino-6-(2-fluoro-5-(4-(trifluoromethyl)cyclohexylamino)phenyl)-3,5,5,6-tetramethyl-5,6-dihydropyrimidin-4(3H)-one] has an IC50 of 426 nM.
`CC1CCCC1Nc1ccc(F)c([C@@]2(C)N=C(N)N(C)C(=O)C2(C)C)c1` (stereo partly drawn) [Example 25, (S)-2-Amino-6-[2-fluoro-5-(2-methyl-cyclopentylamino)-phenyl]-3,5,5,6-tetramethyl-5,6-dihydro-3H-pyrimidin-4-one] gave an IC50 of 4 nM.
`CN1C(=O)C(C)(C)[C@@](C)(c2cc(NC(=O)CC3CCC3)ccc2F)N=C1N` [Example 27, (S)—N-(3-(2-amino-1,4,5,5-tetramethyl-6-oxo-1,4,5,6-tetrahydropyrimidin-4-yl)-4-fluorophenyl)-2-cyclobutylacetamide] gave an IC50 of 157 nM.
Molecule `CN1C(=O)C(C)(C)[C@@](C)(c2cc(Nc3ccn[nH]3)ccc2F)N=C1N` [Example 124, (S)-6-(5-(1H-Pyrazol-5-ylamino)-2-fluorophenyl)-2-amino-3,5,5,6-tetramethyl-5,6-dihydropyrimidin-4(3H)-one hydrochloride] has an IC50 of 589 nM.
Molecule `CN1C(=O)C(C)(C)[C@@](C)(c2cc(NCC3CCCOC3)ccc2F)N=C1N` (stereo partly drawn) [Example 90, (S)-2-Amino-6-{2-fluoro-5-[(tetrahydro-pyran-3-ylmethyl)-amino]-phenyl}-3,5,5,6-tetramethyl-5,6-dihydro-3H-pyrimidin-4-one] has an IC50 of 467 nM.
For `CCC[C@@]1(c2cccc(NC(=O)C3(C(F)(F)F)CC3)c2)CC(=O)N(C)C(N)=N1` [Example 14, 1-Trifluoromethyl-cyclopropanecarboxylic acid [3-((S)-2-amino-1-methyl-6-oxo-4-propyl-1,4,5,6-tetrahydro-pyrimidin-4-yl)-phenyl]-amide], the IC50 was 120 nM.
Work on `COC(=O)c1ccc(Nc2ccc(F)c([C@@]3(C)N=C(N)N(C)C(=O)C3(C)C)c2)c(OC)c1` [Example 123, (S)-Methyl-4-(3-(2-amino-1,4,5,5-tetramethyl-6-oxo-1,4,5,6-tetrahydropyrimidin-4-yl)-4-fluorophenylamino)-3-methoxybenzoate] yielded an IC50 of 46 nM.
Work on `CN1C(=O)C(C)(C)[C@@](C)(c2cc(NCC3CC3)ccc2F)N=C1N` [Example 52, (S)-2-Amino-6-(5-(C-cyclopropylmethylamino)-2-fluorophenyl)-3,5,5,6-tetramethyl-5,6-dihydropyrimidin-4(3H)-one] yielded an IC50 of 7 nM.
Work on `CN1C(=O)C(C)(C)[C@@](C)(c2cc(NC(=O)C(C)(O)c3ccc(Cl)cc3)ccc2F)N=C1N` (stereo partly drawn) [Example 141, N-[3-((S)-2-Amino-1,4,5,5-tetramethyl-6-oxo-1,4,5,6-tetrahydro-pyrimidin-4-yl)-4-fluoro-phenyl]-2-(4-chloro-phenyl)-2-hydroxy-propionamide] yielded an IC50 of 332 nM.
In the case of `CN1C(=O)C(C)(C)[C@@](C)(c2cc(NC3CCC(c4ccccc4)C3)ccc2F)N=C1N` (stereo partly drawn) [Example 33, (6S)-2-Amino-6-(2-fluoro-5-(3-phenylcyclopentylamino)phenyl)-3,5,5,6-tetramethyl-5,6-dihydropyrimidin-4(3H)-one], the IC50 is reported as 29 nM.
For `Cc1nc(C(C)Nc2ccc(F)c([C@@]3(C)N=C(N)N(C)C(=O)C3(C)C)c2)c(C(F)(F)F)o1` (stereo partly drawn) [Example 159, (S)-2-Amino-6-{2-fluoro-5-[1-(2-methyl-5-trifluoromethyl-oxazol-4-yl)-ethylamino]-phenyl}-3,5,5,6-tetramethyl-5,6-dihydro-3H-pyrimidin-4-one], the IC50 was 24 nM.
`CN1C(=O)C(C)(C)[C@@](C)(c2cc(Nc3ccccc3Cl)ccc2F)N=C1N` [Example 119, (S)-2-Amino-6-(5-(2-chlorophenylamino)-2-fluorophenyl)-3,5,5,6-tetramethyl-5,6-dihydropyrimidin-4(3H)-one] gave an IC50 of 16 nM.
In the case of `CC(Nc1ccc(F)c([C@@]2(C)N=C(N)N(C)C(=O)C2(C)C)c1)c1ccn[nH]1` (stereo partly drawn) [Example 111, (S)-2-Amino-6-{2-fluoro-5-[1-(2H-pyrazol-3-yl)-ethylamino]-phenyl}-3,5,5,6-tetramethyl-5,6-dihydro-3H-pyrimidin-4-one], the IC50 is reported as 46 nM.
With `CN1C(=O)C(C)(C)[C@@](C)(c2cc(NC(=O)CC3CC3)ccc2F)N=C1N` [Example 28, (S)—N-(3-(2-amino-1,4,5,5-tetramethyl-6-oxo-1,4,5,6-tetrahydropyrimidin-4-yl)-4-fluorophenyl)-2-cyclopropylacetamide] the IC50 was 43 nM.
`CN1C(=O)C(C)(C)[C@@](C)(c2cc(NC(=O)[C@](C)(O)C(F)(F)F)ccc2F)N=C1N` [Example 143, (S)—N-(3-((S)-2-amino-1,4,5,5-tetramethyl-6-oxo-1,4,5,6-tetrahydropyrimidin-4-yl)-4-fluorophenyl)-3,3,3-trifluoro-2-hydroxy-2-methylpropanamide] showed an IC50 of 44 nM.
In the case of `CN1C(=O)C(C)(C)[C@@](C)(c2cc(N[C@H]3CCC[C@@H]3O)ccc2F)N=C1N` [Example 92, (S)-2-Amino-6-(2-fluoro-5-((1S,2S)-2-hydroxycyclopentylamino)phenyl)-3,5,5,6-tetramethyl-5,6-dihydropyrimidin-4(3H)-one], the IC50 is reported as 279 nM.
Work on `Cc1nc(C(C)Nc2ccc(F)c([C@@]3(C)N=C(N)N(C)C(=O)C3(C)C)c2)sc1C` (stereo partly drawn) [Example 126, (S)-2-Amino-6-{5-[1-(4,5-dimethyl-thiazol-2-yl)-ethylamino]-2-fluoro-phenyl}-3,5,5,6-tetramethyl-5,6-dihydro-3H-pyrimidin-4-one] yielded an IC50 of 26 nM.
For `CN1C(=O)C(C)(C)[C@@](C)(c2cc(NCC3CCOC3)ccc2F)N=C1N` (stereo partly drawn) [Example 76, (S)-2-Amino-6-{2-fluoro-5-[(tetrahydro-furan-3-ylmethyl)-amino]phenyl}-3,5,5,6-tetramethyl-5,6-dihydro-3H-pyrimidin-4-one], the IC50 was 15 nM.
`COc1ccc(Nc2ccc(F)c([C@@]3(C)N=C(N)N(C)C(=O)C3(C)C)c2)cc1` [Example 72, (S)-2-Amino-6-(2-fluoro-5-(4-methoxyphenylamino)phenyl)-3,5,5,6-tetramethyl-5,6-dihydropyrimidin-4(3H)-one] showed an IC50 of 201 nM.
`COc1ccccc1Nc1ccc(F)c([C@@]2(C)N=C(N)N(C)C(=O)C2(C)C)c1` [Example 56, (S)-2-Amino-6-(2-fluoro-5-(2-methoxyphenylamino)phenyl)-3,5,5,6-tetramethyl-5,6-dihydropyrimidin-4(3H)-one] was tested, and the IC50 was 15 nM.
`Cc1cc(C)c(Nc2ccc(F)c([C@@]3(C)N=C(N)N(C)C(=O)C3(C)C)c2)cc1C` [Example 146, (S)-2-Amino-6-(2-fluoro-5-(2,4,5-trimethylphenylamino)phenyl)-3,5,5,6-tetramethyl-5,6-dihydropyrimidin-4(3H)-one] showed an IC50 of 257 nM.
With `CN1C(=O)C(C)(C)[C@@](C)(c2cc(NCc3cc[nH]n3)ccc2F)N=C1N` [Example 61, (S)-2-Amino-6-{2-fluoro-5-[(1H-pyrazol-3-ylmethyl)-amino]-phenyl}-3,5,5,6-tetramethyl-5,6-dihydro-3H-pyrimidin-4-one] the IC50 was 59 nM.
For `CN1C(=O)C(C)(C)[C@@](C)(c2cc(Nc3ccccc3OC(F)F)ccc2F)N=C1N` [Example 73, (S)-2-Amino-6-(5-(2-(difluoromethoxy)phenylamino)-2-fluorophenyl)-3,5,5,6-tetramethyl-5,6-dihydropyrimidin-4(3H)-one], the IC50 was 135 nM.
`CN1C(=O)C(C)(C)[C@@](C)(c2cc(NC3CCOCC3)ccc2F)N=C1N` [Example 50, (S)-2-Amino-6-[2-fluoro-5-(tetrahydro-pyran-4-ylamino)-phenyl]-3,5,5,6-tetramethyl-5,6-dihydro-3H-pyrimidin-4-one] showed an IC50 of 21.8 nM.
`CC(Nc1ccc(F)c([C@@]2(C)N=C(N)N(C)C(=O)C2(C)C)c1)c1ccccn1` (stereo partly drawn) [Example 40] gave an IC50 of 21 nM.
Work on `CN1C(=O)C(C)(C)[C@@](C)(c2cc(Nc3cccc(F)c3)ccc2F)N=C1N` [Example 88, (S)-2-Amino-6-[2-fluoro-5-(3-fluoro-phenylamino)-phenyl]-3,5,5,6-tetramethyl-5,6-dihydro-3H-pyrimidin-4-one] yielded an IC50 of 795 nM.
`CC(Nc1ccc(F)c([C@@]2(C)N=C(N)N(C)C(=O)C2(C)C)c1)c1ccccc1` (stereo partly drawn) [Example 38, (S)-2-Amino-6-[2-fluoro-5-(1-phenyl-ethylamino)-phenyl]-3,5,5,6-tetramethyl-5,6-dihydro-3H-pyrimidin-4-one] gave an IC50 of 48 nM.
